The values below come from patent publication US9708310B2, “Phenanthroindolizidine and phenanthroquinolizidine alkaloid having a hydroxyl group on the phenanthrene ring thereof, preparation method and use thereof” (CHINA MEDICAL UNIVERSITY, priority 2015, dated 2017).

For data set [1] the following is noted: cited from earlier work.
A further data set concerns rats. As to conditions: high doses; cited from earlier work.
The conditions of data set [2]: early clinical trial; cited from earlier work.
Data set [3] relates to breast carcinoma (MCF-7) cells. Kind of data set: Cell viability (MTT) assay, MCF-7. The format is cell-based, human. Here is the method:
(§1) 8. Typical Procedure for Cell Viability Assay
(§2) The breast carcinoma (MCF-7), lung carcinoma (H1299), and prostate carcinoma (DU145) cells were first plated at a density of 5×10^3 cells per well in 96-well plates for overnight and then treated with different concentrations of these compounds. After 48 h of treatment, 100 µL of MTT solution was added to each well and the cells were incubated for 1 h at 37° C. Then, the MTT solution was completely removed and […] of DMSO was added to solubilize the MTT formazan crystals. Finally, the absorbance was measured using a MQX200R microplate reader (BioTek, VT, USA) at a wavelength of 550 nm.

The next data set in a line: physchem. The following applies: aqueous with cosolvent or surfactant or cyclodextrin.
The test system of data set [4] is lung carcinoma (H1299) cells. Kind of data set: Cell viability (MTT) assay, H1299. The data set is classed as cell-based, human. Here is the method: as §1, §2
The test system of data set [5] is prostate carcinoma (DU145) cells. Kind of data set: Cell viability (MTT) assay, DU145. The data set is classed as cell-based, human. Here is the method: as §1, §2
Data set [6] concerns cyclin D1, CDK4, cyclin E, CDK2, cyclin B1, and CDK1. Put plainly: Western blot of H1299 cell cycle associated protein. As to conditions: H1299 cells, 7, 14, and 21 nM, 12, 24, and 48 h. The data set is classed as cell-based, human. Here is the method:
9. The Effect of Compound 20 on H1299 Cell Cycle Associated Protein
9.1 Western Blot Analysis
H1299 cells were first seeded at a density of 3×10^5 cells per well in six-well plates overnight and then treated with compound 20 at three different concentrations (7, 14, and 21 nM) for 12, 24, and 48 h. The cells were washed with PBS buffer and lysed in ice-cold RIPA buffer for 30 min. The supernatant was collected and centrifuged at 15,000 rpm at 4° C. for 30 min. The protein concentration was measured with a Bio-Rad assay using a MQX200R microplate reader (BioTek, VT, USA). The cell lysates were separated by 10% SDS-PAGE and electrophoretically transferred onto polyvinylidene difluoride (PVDF) membranes (Millipore, Bedford, Mass.). After several washes, the membranes were blocked with 5% skim milk in TBST (tris-buffered saline containing 0.1% Tween-20) at room temperature for 1 h and incubated with different primary antibodies against cyclin D1, CDK4, cyclin E, CDK2, cyclin B1, and CDK1 (1:2000 dilution) at 4° C. for overnight. […] After washing three times in TBST, the bound antibody was visualized using ECL Western Blotting Reagent (PerkinElmer, Boston), and chemiluminescence was detected using a Fuji Medical X-ray film (Tokyo, Japan).
All the data were expressed as means±SEM for three replicate experiments. […]
On the technique in general: A western blot detects proteins with antibodies after separation by electrophoresis.

In data set [7] the test system is normal human lung fibroblast cell line, MRC-5. Put plainly: Cytotoxicity against normal lung fibroblasts MRC-5. The data set is classed as cell-based. The following applies: MRC5.
The next data set concerns female athymic nude mice. Kind of data set: Rotarod test for motor coordination (neurotoxicity). The format is in vivo. As to conditions: i.p., 20 at 10 mg/kg vs 5i at 0.08 mg/kg, 15 administrations, 5 rpm, three consecutive days. The text has this:
10. Rotarod Test for Motor Coordination
The protocol of rotarod test was based on those described in the literature [Y. Z. Lee, C. W Yang, H. Y. Hsu, Y. Q. Qiu, T. K. Yeh, H. Y. Chang, et al., J. Med. Chem. 2012, 55, 10363-10377] with slight modifications. Eight week-old female athymic nude mice were used. All the animal experiments followed ethical standards, and the protocols have been reviewed and approved by the Animal Care and Use Committee of China Medical University (IACUC approval no: 102-235-N). The mice were randomly divided into two groups (n=3) and treated with compound 20 (10 mg/kg) or 7-methoxycryptopleurine 5i (0.08 mg/kg) intraperitoneally. The compounds were dissolved in a mixture of 2.5% DMSO, 2.5% EtOH, 5% Cremophor EL, and 90% normal saline. Each group was administered once daily, five days per week for 15 times in total. After 15 administrations of the compounds, the mice were placed on the rotarod apparatus for training (day 1) and test (days 2-4) with the rod set in motion at a constant speed of 5 rpm. The latency time to fall from the rotating rod was recorded for a maximum of 180 s.
(In the rotarod test animals must keep their balance on a rotating rod.)

The conditions of data set [8]: predicted by PreADMET; cited from earlier work.
Data set [9] is described as follows: Solubility in the dosing solvent system. The following applies: 2.5% DMSO, 2.5% EtOH, 5% Cremophor EL, and 90% normal saline.
In data set [10] the test system is MCF-7, H1299, DU145 cancer cell lines. The format is cell-based, human. Here is the method: as §2
The cytotoxic activities of 18 compounds 4a-i and 5a-i were evaluated against three human cancer cell lines, breast carcinoma (MCF-7), lung carcinoma (H1299), and prostate carcinoma (DU145), using tylophorine (4i) and 7-methoxycryptopleurine (5i) for comparison. […] In the phenanthroindolizidine series, the IC50 ratio of compounds 4a-h to tylophorine (4i) followed the order: 4a˜4h˜4e>4f>>4b˜[…]>4d>4g; however, in the phenanthroquinolizidine series, the IC50 ratio of compounds 5a-h to 7-methoxycryptopleurine (5i) followed the order: 5c˜5a˜5h˜5b>>5f˜5d>5e>5g. […] Based on the SAR results, a more polar phenanthroquinolizidine, 7-hydroxycryptopleurine (20), was designed and synthesized to decrease the CNS toxicity and increase the water solubility. […]

Setting [11] is: Homo sapiens, MCF7, 48 h treatment.
Where [12] appears, read: Homo sapiens, NCI-H1299, 48 h treatment.
Where [13] appears, read: Homo sapiens, DU-145, 48 h treatment.

pIC50: −log10 of the molar value. In brackets after ≈: the same amount, converted by molar mass.

In the case of `COc1cc2c3c(c4cc(OC)c(OC)cc4c2cc1OC)CN1CCC[C@@H]1C3` [Compound 1, (R)-tylophorine], in data set [1], the water solubility entry is recorded as “low”. In addition, in the data set with rats, the CNS side effects result is “caused central nervous system (CNS) side effects”.

For the compound `COc1cc2c3c(c4ccc(OC)c(OC)c4c2cc1OC)CN1CCC[C@@H]1C3` [Compound 2, (R)-tylocrebrine], the clinical trial outcome in data set [2] is given as “failed in the early clinical trial owing to CNS toxicity”.

One may read the pIC50 as the negative decadic logarithm of the IC50, by convention in mol/L. A higher pIC50 goes with a small IC50. The solubility is the dissolved amount per volume that the medium holds. Low readings indicate a poorly soluble substance, high ones a readily soluble substance. Broadly, the melting point is the temperature, or range, at which the solid turns liquid. Regarding `COc1cc2c(cc1O)c1c(c3cc(OC)c(OC)cc32)CC2CCCCN2C1` (centres unmarked) [Compound 20, 7-Hydroxy-2,3,6-trimethoxy-10,11,12,13,13a,14-hexahydro-9H-9a-azabenzo[b]triphenylene], the melting point lay within 114 to 115 °C. The same compound had a negative-log IC50 (pIC50) in data set [3] (setting [11]) of 8.19. Moreover, the solubility in “physchem” is about 1300 µg/mL (≈ 3.3 mM). In addition, the pIC50 in [4] (setting [12]) was 8.28. Also, in data set [5] (setting [13]), the pIC50 was 8.36. In [6], the “cell cycle associated protein expression” value is “decrease in cyclin D1-cdk4, cyclin E-cdk2, and cyclin B1-cdk1 expression”. Moreover, in data set [7], the pIC50 is 7.59. Moreover, in the data set with female athymic nude mice, the “motor coordination (neurotoxicity), rotarod” value is listed as “better motor coordination than the compound 5i-treated group”.

Turning to `COc1ccc2c3c(c4cc(OC)c(OC)cc4c2c1)C[C@H]1C[C@H](O)CCN1C3` [Compound 3], the BBB penetration result in [8] is “significantly reduced the BBB penetration”.

Turning to `COc1cc2c3c(c4cc(OC)c(OC)cc4c2cc1OC)CN1CCCCC1C3` (centres unmarked) [Compound 5i, 7-Methoxycryptopleurine], the pIC50 in data set [3] (48 h treatment) is 7.97; in data set [4] (48 h treatment), 8.15; in data set [5] (48 h treatment), 8.35. Further, the “solubility in the solvent system” value in data set [9] is listed as “less than 0.08 mg/mL”.

As to `COc1ccc2c(c1)c1c(c3cc(OC)c(OC)cc32)CC2CCCCN2C1` (centres unmarked) [Compound 5f, 2,3,7-Trimethoxy-10,11,12,13,13a,14-hexahydro-9H-9a-azabenzo[b]triphenylene], the melting point lay within 156 to 158 °C. Moreover, the pIC50 in data set [3] (setting [11]) is 7.16. In data set [4] (setting [12]), this compound showed a pIC50 of 7.24. In data set [5] (setting [13]), this compound gave a pIC50 of 7.38. Besides, the “fold increase in the cytotoxicity relative to compound 4f” value in data set [10] is 28-36 fold.

Regarding `COc1cc2c3c(c4c(OC)c(OC)c(OC)cc4c2cc1OC)CN1CCCCC1C3` (centres unmarked) [Compound 5h, 2,3,6,7,8-Pentamethoxy-10,11,12,13,13a,14-hexahydro-9H-9a-azabenzo[b]triphenylene], the melting point was 211 °C (dec.). The compound also had a pIC50 in data set [3] (setting [11]) of 6.56. The same compound had a pIC50 in [4] (setting [12]) of 6.63. The same compound gave a pIC50 in data set [5] (setting [13]) of 6.67.

Regarding `COc1cc2c3c(c4c(OC)c(OC)c(OC)cc4c2cc1OC)CN1CCCC1C3` (centres unmarked) [Compound 4h, 2,3,6,7,8-Pentamethoxy-11,12,12a,13-tetrahydro-10H-9a-azacyclopenta[b]triphenylene], the melting point is 231 °C (dec.). Also, the pIC50 in data set [3] (setting [11]) was under 5.60. In data set [4] (setting [12]), this compound gave a pIC50 of under 5.60. For the same compound, in [5] (setting [13]), the pIC50 was under 5.60.
